Data set [1] concerns WI-38 (human fetal lung fibroblast). The data set can be described thus: MTT-test WI-38. It counts as cell-based. On the procedure: (§1) Since the investigated compounds are designed as theranostic and cytostatic agents, their toxic impact was evaluated as a standard MTT-test. Cytotoxicity was studied on four cell lines, i.e.,—HCT116 (human colorectal carcinoma), MCF-7 (human breast cancer), A549 (human lung adenocarcinoma), and WI-38 (human fetal lung fibroblast). Obtained results appear to be unorthodox: as it is known, the introduction of an organotin moiety tends to noticeably increase compounds’ toxicity and more lipophilic ones do it better, but in the presented data pattern turns vice versa (Table 3).
(§2) HCT-116 (colon carcinoma), MCF-7 (breast adenocarcinoma), A-549 (lung adenocarcinoma) cell lines, and WI-38 (cell line composed of fibroblasts) were derived from The European Collection of Authenticated Cell Cultures (ECACC, Salisbury, UK), cultured in DMEM medium (Gibco™, Dublin, Ireland) supplemented with 10% fetal bovine serum (Gibco™, Brasilia, Brazil). The cells were cultured in an incubator at 37 °C in a humidified 5% CO2 atmosphere and subcultured two times a week.
(§3) The toxicity of compounds was studied on cultured cell lines according to standard MTT protocol.

Data set [2] can be described thus: DPPH-test (radical scavenging). The following applies: for Quantity of Reduced DPPH after 20 h: DPPH 0.2 mM + test compound 0.2 mM in EtOH, equal volumes, 517 nm. From the text: 2,2-Diphenyl-1-picrylhydrazyl (DPPH)—is a stable N-centered chromophore radical with absorption peak λmax = 517 nm, while its reduced form is pale yellow. Its reduction can be monitored spectrophotometrically and is a well-known and convenient way of evaluating radical scavenging activity. […] This may be caused by the participation not of only the sterically hindered phenolic group in the process of radical scavenging, but salicylic phenolic group and probably hydrazide fragment as well. The abovementioned structural moieties participate in the coordination of tin atoms, and therefore are excluded from the mechanism of antioxidant action of complexes. […] The introduction of tin is known to lower the radical scavenging capacity of corresponding ligands and is estimated as referred previously. The only exception is complex 7, bearing two 2,6-di-tert-butylphenols pendants attached directly to the tin.
The activity of synthesized compounds as radical scavengers was estimated spectrophotometrically at λmax = 517 nm using stable radical 2,2-diphenyl-1-picrylhydrazyl (Sigma-Aldrich) according to the known procedure. The reaction mixture contained DPPH (0.75 mL, 0.2 mM) and a solution of the test compound in EtOH (0.75 mL, 0.2 mM), and was put in 1 cm glass cuvettes. The measurements were carried out for 20 h and the results were calculated using Microsoft Excel 2010. Antioxidant activity was expressed as the percentage of reduced DPPH according to the Equation (1):I (%) = ((A0 − A1)/A0) × 100(1) where A0 is the absorbance of the control 0.1 mM DPPH in EtOH, ε DPPH = 1.15·× 10^4, and A1 is the absorbance of the reaction mixture in the presence of the test compound.

Data set [3] concerns MCF-7 (human breast cancer). The data set can be described thus: MTT-test MCF-7. In kind it is cell-based. On the procedure: as §1, §2, §3
The target in data set [4] is T1, Soybean lipoxygenase LOX-1B (Glycine max, UniProt P08170).
T1 sequence (P08170 1-839): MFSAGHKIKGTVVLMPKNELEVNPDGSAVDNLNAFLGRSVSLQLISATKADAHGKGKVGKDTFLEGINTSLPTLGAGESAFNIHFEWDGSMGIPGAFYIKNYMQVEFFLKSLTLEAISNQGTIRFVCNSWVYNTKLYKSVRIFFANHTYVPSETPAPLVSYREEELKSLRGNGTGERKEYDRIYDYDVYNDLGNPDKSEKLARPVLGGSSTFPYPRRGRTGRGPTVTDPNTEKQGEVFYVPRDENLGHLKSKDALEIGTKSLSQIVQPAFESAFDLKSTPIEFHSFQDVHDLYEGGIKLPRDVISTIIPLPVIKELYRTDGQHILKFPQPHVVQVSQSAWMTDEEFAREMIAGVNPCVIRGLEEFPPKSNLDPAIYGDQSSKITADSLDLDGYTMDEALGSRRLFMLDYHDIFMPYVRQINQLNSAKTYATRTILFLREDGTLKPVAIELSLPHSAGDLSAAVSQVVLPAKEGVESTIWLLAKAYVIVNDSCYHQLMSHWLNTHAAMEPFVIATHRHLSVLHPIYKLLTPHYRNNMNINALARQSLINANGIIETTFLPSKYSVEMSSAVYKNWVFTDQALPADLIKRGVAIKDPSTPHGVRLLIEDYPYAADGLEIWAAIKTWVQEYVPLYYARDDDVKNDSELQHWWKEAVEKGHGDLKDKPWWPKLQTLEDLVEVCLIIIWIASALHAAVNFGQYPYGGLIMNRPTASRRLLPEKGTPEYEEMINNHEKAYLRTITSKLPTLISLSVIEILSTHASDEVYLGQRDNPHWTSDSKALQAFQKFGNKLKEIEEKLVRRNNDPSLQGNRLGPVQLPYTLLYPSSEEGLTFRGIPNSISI
The data set can be described thus: Lipoxygenase inhibition assay. The following applies: 3 µL of 1 mM compound in DMSO per 150 µL, 5 min, 20 °C, 234 nm. It counts as biochemical. An excerpt: Lipoxygenases are a group of enzymes catalyzing regioselective oxidation of polyunsaturated fatty acids to corresponding hydroperoxides. […] Soybean lipoxygenase LOX-1B was used as a model enzyme since it is structurally relative to human 5-lipoxygenases. The influence of synthesized compounds 1–7 on the LOX-1B activity was estimated as a formation rate of octadecadienoic acid hydroperoxides (λmax = 234 nm) from the initial acid and was monitored spectrophotometrically (Table 1).
The lipoxygenase activity was evaluated spectrophotometrically. The concentrations of linoleic acid oxidation products, isomeric hydroperoxides, were measured at λmax = 234 nm (ε = 25,000 L mol^−1 cm^−1) with a 96-well microplate spectrophotometer Multiskan Go (Thermo Fisher Scientific, Waltham, MA, USA). The analyzed solution contained 30 µL borate buffer (pH 9.0), 100 µL linoleic acid (0.45 mM) in borate buffer, and 3 µL 1 mM solution of the test compound in DMSO. The reaction was initiated by the addition of 17 µL of lipoxygenase (500 U) solution in borate buffer. The measurements were performed for 5 min at 20 °C.
The inhibition rate I (%) of lipoxygenase was determined by the Equations (2) and (3), where A0 is the absorbance of the control solution, and A1 is the absorbance of the reaction mixture in the presence of the tested compound 5 min after the beginning of the reaction. ΔA is the difference between A1 and A0. All experiments were performed in triplicate.

The nature of data set [5]: Luminescence / photophysical properties. In kind it is physicochemical. The conditions noted are these: for Quantum Yield, DMSO Solution 10 µM / Quantum Yield, DMSO Solution 100 µM / Quantum Yield, DMSO Solution 1000 µM / Quantum Yield, Powders: λex = 365 nm; for ε (λmax): at absorption λmax; for Luminosity (λmax): at λmax; for Quantum Yield, Powders: solid (compound 4 is an oil). On the procedure: Their quantum yields reached 20%, which together with their high absorption (Table 4) makes them highly emissive even in powders.
The registration of luminescence spectra of powders and solutions in the visible range as well as the measurement of quantum yields were carried out with Horiba FluoroMax Plus, with xenon lamp as excitation source at room temperature; excitation was performed through a ligand (λex = 365 nm). The quantum yield was measured by the absolute method in the integrating sphere.

Structures are written as SMILES. Several values for one entry are separate records, joined by “and”; a condition that tells them apart may be missing. Equal entries are not always repeated. Where two headings read alike, the source gives them in different places.

The IC50 is the point on the concentration scale where inhibition reaches its midpoint. The low end stands for inhibition by little substance, the high end for a need for much substance. By EC50 is commonly meant the midpoint of the concentration-response curve. Low values mean a more potent agent, high ones a less potent agent. As usually defined, the inhibition is the share of the control response that was lost under treatment. For the compound `CC(C)(C)c1cc(C(=O)N/N=C/c2ccccc2O)cc(C(C)(C)C)c1O` [Compound 1, Di-tert-butyl-4-hydroxy-N′-(2-hydroxybenzylidene)-benzohydrazine], the half-maximal inhibitory concentration (IC50) in data set [1] (Homo sapiens, WI-38) was 6.6 ± 1.2 µM; in data set [3] (Homo sapiens, MCF7) it was 4.7 ± 0.8 µM. The compound further came in with an EC50 in data set [2] of 163 µM. For the same compound, in data set [4] (read-out: I (LOX Inhibition Assay)), the inhibition at 1000 µM (stock) came to 51.7 ± 4.2%.
`CC(C)(C)c1cc(C2=NN=Cc3ccccc3[O][Sn]([CH3])([CH3])[O]2)cc(C(C)(C)C)c1O` [Compound 2, Me2SnL] showed a half-inhibitory concentration (IC50) in data set [1] of 9.5 ± 3.1 µM. Moreover, in data set [5], the “λmax (absorption)” value is reported as 403 nm; the “Quantum Yield, DMSO Solution 10 µM” value was 17 ± 3%; the “Quantum Yield, DMSO Solution 100 µM” value is reported as 56 ± 1%; the “Quantum Yield, DMSO Solution 1000 µM” value was 39% and 39 ± 3%. Moreover, in data set [5], the “ε (λmax)” value is 13,070 M^−1·cm^−1; the “Luminosity (λmax)” value is 771,130, (403) M^−1·cm^−1; the “Quantum Yield, Powders” value is 14 ± 2%; the “Luminosity (λ = 365 nm)” value is reported as 508,403 M^−1·cm^−1. The “ε (λ = 365 nm)” value in data set [5] was determined as 8617 M⁻¹ cm⁻¹. For the same compound, the “Quantity of Reduced DPPH after 20 h” value in data set [2] is 35.2 ± 1.9%. In addition, the IC50 in data set [3] was found to be 5.2 ± 1 µM. Further, the “I (LOX Inhibition Assay)” value in data set [4] worked out at 57.1 ± 4.7%.
`C[CH2][Sn]1([CH2]C)[O]C(c2cc(C(C)(C)C)c(O)c(C(C)(C)C)c2)=NN=Cc2ccccc2[O]1` [Compound 3, Et2SnL]: the IC50 in data set [1] came to 5.8 ± 1.5 µM. For the same compound, in data set [5], the “λmax (absorption)” value is reported as 410 nm; the “Quantum Yield, DMSO Solution 10 µM” value is listed as 17 ± 2%; the “Quantum Yield, DMSO Solution 100 µM” value came out at 45 ± 1%; the “Quantum Yield, DMSO Solution 1000 µM” value stood at 30 ± 2%. Further, in data set [5], the “ε (λmax)” value is given as 14,020 M^−1·cm^−1; the “Luminosity (λmax)” value is given as 658,940, (410) M^−1·cm^−1; the “Quantum Yield, Powders” value is 14 ± 2%; the “Luminosity (λ = 365 nm)” value is reported as 210,983 M^−1·cm^−1. Also, the “ε (λ = 365 nm)” value in data set [5] stood at 4489 M⁻¹ cm⁻¹. Moreover, in data set [2], the “Quantity of Reduced DPPH after 20 h” value came out at 41.3 ± 2.1%. This compound showed an IC50 in data set [3] of 3.7 ± 0.5 µM. Also, the “I (LOX Inhibition Assay)” value in data set [4] is 61.1 ± 5.1%.
`CCC[CH2][Sn]1([CH2]CCC)[O]C(c2cc(C(C)(C)C)c(O)c(C(C)(C)C)c2)=NN=Cc2ccccc2[O]1` [Compound 4, Bu2SnL]: in data set [1], the 50% inhibitory concentration (IC50) came out at 10.8 ± 3.5 µM. Further, in data set [5], the “λmax (absorption)” value was 409 nm; the “Quantum Yield, DMSO Solution 10 µM” value is reported as 41 ± 3%; the “Quantum Yield, DMSO Solution 100 µM” value is 67% and 66 ± 2%; the “Quantum Yield, DMSO Solution 1000 µM” value stood at 36 ± 3%. Moreover, in data set [5], the “ε (λmax)” value was determined as 5950 M⁻¹ cm⁻¹; the “Luminosity (λmax)” value is listed as 398,650, (409) M^−1·cm^−1; the “Quantum Yield, Powders” value turned out to be 4 ± 3%; the “Luminosity (λ = 365 nm)” value was 146,127 M^−1·cm^−1. Besides, the “ε (λ = 365 nm)” value in data set [5] came out at 2181 M⁻¹ cm⁻¹. Further, the “Quantity of Reduced DPPH after 20 h” value in data set [2] worked out at 50.5 ± 2.8%. The midpoint of inhibition in data set [3], the IC50, lay at 1.01 ± 0.4 µM. Besides, the “I (LOX Inhibition Assay)” value in data set [4] is given as 47.5 ± 3.8%.
`CC(C)(C)c1cc(C2=NN=Cc3ccccc3[O][Sn]([C](C)(C)C)([C](C)(C)C)[O]2)cc(C(C)(C)C)c1O` [Compound 5, Bu^t2SnL] had an IC50 in data set [1] of 26.3 ± 11.3 µM. In addition, in data set [5], the “λmax (absorption)” value is recorded as 412 nm; the “Quantum Yield, DMSO Solution 10 µM” value is listed as 20 ± 2%; the “Quantum Yield, DMSO Solution 100 µM” value was found to be 37 ± 1%; the “Quantum Yield, DMSO Solution 1000 µM” value was found to be 29 ± 2%. In addition, in data set [5], the “ε (λmax)” value was determined as 9920 M⁻¹ cm⁻¹; the “Quantum Yield, Powders” value was found to be 8 ± 1%; the “Luminosity (λ = 365 nm)” value is given as 206,360 M^−1·cm^−1; the “ε (λ = 365 nm)” value turned out to be 3080 M⁻¹ cm⁻¹. In addition, the “Quantity of Reduced DPPH after 20 h” value in data set [2] is given as 26.5 ± 1.7%. This compound also registered an IC50 in data set [3] of 50.4 ± 12.6 µM. The “I (LOX Inhibition Assay)” value in data set [4] is listed as 61.4 ± 5.3%.
For `CC(C)(C)c1cc(C2=NN=Cc3ccccc3[O][Sn]([c]3ccccc3)([c]3ccccc3)[O]2)cc(C(C)(C)C)c1O` [Compound 6, Ph2SnL], the 50% inhibitory concentration (IC50) in data set [1] stood at 52.6 ± 14.6 µM. In addition, in data set [5], the “λmax (absorption)” value amounted to 393 nm; the “Quantum Yield, DMSO Solution 10 µM” value is on record as 25 ± 2%; the “Quantum Yield, DMSO Solution 100 µM” value amounted to 67 ± 2%; the “Quantum Yield, DMSO Solution 1000 µM” value was 26 ± 2%. Also, in data set [5], the “ε (λmax)” value is 13,450 M^−1·cm^−1; the “Quantum Yield, Powders” value stood at 6 ± 2%; the “Luminosity (λ = 365 nm)” value is recorded as 333,370 M^−1·cm^−1; the “ε (λ = 365 nm)” value was 9010 M⁻¹ cm⁻¹. In addition, the “Quantity of Reduced DPPH after 20 h” value in data set [2] is 47.4 ± 2.7%. Half-maximal inhibition in data set [3] (IC50) was put at 26.3 ± 3.5 µM. In addition, in data set [4], the “I (LOX Inhibition Assay)” value was 44.9 ± 3.7%.

The values above are taken from publication PMC9741287, “Cytotoxic and Luminescent Properties of Novel Organotin Complexes with Chelating Antioxidant Ligand” (Molecules, 2022).
